# Data taken from PMC11012124, “Synthesis of Novel Triazine-Based Chalcones and 8,9-dihydro-7H-pyrimido[4,5-b][1,4]diazepines as Potential Leads in the Search of Anticancer, Antibacterial and Antifungal Agents” (International Journal of Molecular Sciences, 2024).
# Experiments:
# Test in all cases: cells
# A498 = conditions: Homo sapiens, A498, 48 h; for CC50: read-out: LC50
# OVCAR-3 = conditions: Homo sapiens, OVCAR-3, 48 h; for CC50: read-out: LC50
# HL-60(TB) = conditions: Homo sapiens, HL-60, 48 h; for CC50: read-out: LC50
# CAKI-1 = conditions: Homo sapiens, CAKI-1, 48 h; for CC50: read-out: LC50
# SNB-75 = conditions: Homo sapiens, SNB-75, 48 h; for CC50: read-out: LC50
# SK-MEL-2 = conditions: Homo sapiens, SK-MEL-2, 48 h; for CC50: read-out: LC50
# UACC-257 = conditions: Homo sapiens, UACC-257, 48 h; for CC50: read-out: LC50
# SK-MEL-5 = conditions: Homo sapiens, SK-MEL-5, 48 h; for CC50: read-out: LC50
# A549/ATCC = conditions: Homo sapiens, A549, 48 h; for CC50: read-out: LC50
# M14 = conditions: Homo sapiens, M14, 48 h; for CC50: read-out: LC50
# KM12 = conditions: Homo sapiens, KM12, 48 h; for CC50: read-out: LC50
# HCT-116 = conditions: Homo sapiens, HCT-116, 48 h; for CC50: read-out: LC50
# PC-3 = conditions: Homo sapiens, PC-3, 48 h; for CC50: read-out: LC50
# EKVX = conditions: Homo sapiens, 48 h; for CC50: read-out: LC50
# UO-31 = conditions: Homo sapiens, UO-31, 48 h; for CC50: read-out: LC50
# U251 = conditions: Homo sapiens, U-251, 48 h; for GI50: U251, 48 h; for CC50: read-out: LC50
# HS 578T = conditions: Homo sapiens, 48 h; for CC50: read-out: LC50
# HOP-92 = conditions: Homo sapiens, HOP-92, 48 h; for CC50: read-out: LC50
# SF-268 = conditions: Homo sapiens, SF-268, 48 h; for CC50: read-out: LC50
# SF-539 = conditions: Homo sapiens, SF-539, 48 h; for CC50: read-out: LC50, SF-539, 48 h
# HT29 = conditions: Homo sapiens, HT-29, 48 h; for CC50: read-out: LC50
# LOX IMVI = conditions: Homo sapiens, 48 h; for CC50: read-out: LC50, LOX IMVI, 48 h
# COLO 205 = conditions: Homo sapiens, COLO 205, 48 h; for CC50: read-out: LC50
# MOLT-4 = conditions: Homo sapiens, MOLT-4, 48 h; for CC50: read-out: LC50
# NCI-H522 = conditions: Homo sapiens, NCI-H522, 48 h; for CC50: read-out: LC50
# 786-0 = conditions: Homo sapiens, 786-0, 48 h; for CC50: read-out: LC50
# CCRF-CEM = conditions: Homo sapiens, 48 h; for CC50: read-out: LC50
# MDA-MB-468 = conditions: Homo sapiens, MDA-MB-468, 48 h; for CC50: read-out: LC50
# T-47D = conditions: Homo sapiens, T47D, 48 h; for CC50: read-out: LC50
# NCI-H460 = conditions: Homo sapiens, NCI-H460, 48 h; for CC50: read-out: LC50
# HCC-2998 = conditions: Homo sapiens, HCC 2998, 48 h; for CC50: read-out: LC50
# SK-MEL-28 = conditions: Homo sapiens, SK-MEL-28, 48 h; for CC50: read-out: LC50
# K-562 = conditions: Homo sapiens, K562, 48 h; for GI50: K-562, 48 h; for CC50: read-out: LC50
# SNB-19 = conditions: Homo sapiens, SNB-19, 48 h
# UACC-62 = conditions: Homo sapiens, UACC-62, 48 h
# MDA-MB-231/ATCC = conditions: Homo sapiens, MDA-MB-231, 48 h
# SN12C = conditions: Homo sapiens, 48 h
smiles,measurement,setting,value
CN(C)c1nc(NCCNS(=O)(=O)c2ccc(C3=Nc4c(N)nc(N)nc4NC(c4ccc(F)cc4)C3)cc2)nc(Nc2ccc(F)cc2)n1 (centres unmarked) [31f],GI50,A498,22.1 µM
same,CC50,A498,> 100 µM
same,GI50,OVCAR-3,8.09 µM
same,CC50,OVCAR-3,> 100 µM
same,GI50,HL-60(TB),3.12 µM
same,CC50,HL-60(TB),> 100 µM
same,GI50,CAKI-1,6.5 µM
same,CC50,CAKI-1,> 100 µM
same,GI50,SNB-75,2.53 µM
same,CC50,SNB-75,74 µM
same,GI50,SK-MEL-2,8.17 µM
same,CC50,SK-MEL-2,29 µM
same,GI50,UACC-257,11.4 µM
same,CC50,UACC-257,> 100 µM
same,GI50,SK-MEL-5,3.36 µM
same,CC50,SK-MEL-5,14.9 µM
same,GI50,A549/ATCC,> 100 µM
same,CC50,A549/ATCC,> 100 µM
same,GI50,M14,3.84 µM
same,CC50,M14,25.3 µM
same,GI50,KM12,4.69 µM
same,CC50,KM12,> 100 µM
same,GI50,HCT-116,4.54 µM
same,CC50,HCT-116,> 100 µM
same,GI50,PC-3,5.04 µM
same,CC50,PC-3,> 100 µM
same,GI50,EKVX,5.17 µM
same,CC50,EKVX,> 100 µM
same,GI50,UO-31,> 100 µM
same,CC50,UO-31,> 100 µM
same,GI50,U251,6.35 µM
same,CC50,U251,> 100 µM
same,GI50,HS 578T,5.7 µM
same,CC50,HS 578T,> 100 µM
same,GI50,HOP-92,3.09 µM
same,CC50,HOP-92,23.3 µM
same,GI50,SF-268,4.83 µM
same,CC50,SF-268,> 100 µM
same,GI50,SF-539,3.89 µM
same,CC50,SF-539,> 100 µM
same,GI50,HT29,3.88 µM
same,CC50,HT29,> 100 µM
same,GI50,LOX IMVI,2.62 µM
same,CC50,LOX IMVI,9.13 µM
same,GI50,COLO 205,11.8 µM
same,CC50,COLO 205,> 100 µM
same,GI50,MOLT-4,2.45 µM
same,GI50,NCI-H522,34.8 µM
same,CC50,NCI-H522,> 100 µM
same,GI50,786-0,4.77 µM
same,CC50,786-0,> 100 µM
same,GI50,CCRF-CEM,3.99 µM
same,CC50,CCRF-CEM,> 100 µM
same,GI50,MDA-MB-468,2.15 µM
same,CC50,MDA-MB-468,6.24 µM
same,GI50,T-47D,4.86 µM
same,CC50,T-47D,> 100 µM
same,GI50,NCI-H460,4.74 µM
same,CC50,NCI-H460,> 100 µM
same,GI50,HCC-2998,4.22 µM
same,CC50,HCC-2998,> 100 µM
same,GI50,SK-MEL-28,15.7 µM
same,CC50,SK-MEL-28,> 100 µM
same,GI50,K-562,2.8 µM
same,CC50,K-562,> 100 µM
CN(C)c1nc(NCCNS(=O)(=O)c2ccc(C(=O)/C=C/c3ccc(F)cc3)cc2)nc(N2CCOCC2)n1 [23f],GI50,A498,11.9 µM
same,CC50,A498,49.9 µM
same,GI50,SNB-19,13.4 µM
same,CC50,SNB-19; read-out: LC50,52.1 µM
same,GI50,OVCAR-3,14.6 µM
same,CC50,OVCAR-3,55.7 µM
same,GI50,UACC-62,10.8 µM
same,CC50,UACC-62; read-out: LC50,49.1 µM
same,GI50,HL-60(TB),14.7 µM
same,CC50,HL-60(TB),> 100 µM
same,GI50,CAKI-1,9.5 µM
same,CC50,CAKI-1,48.6 µM
same,GI50,SK-MEL-2,13.7 µM
same,CC50,SK-MEL-2,52.7 µM
same,GI50,UACC-257,15.5 µM
same,CC50,UACC-257,54.9 µM
same,GI50,SK-MEL-5,15.7 µM
same,CC50,SK-MEL-5,54.4 µM
same,GI50,A549/ATCC,13.7 µM
same,CC50,A549/ATCC,56.8 µM
same,GI50,M14,15 µM
same,CC50,M14,62.2 µM
same,GI50,KM12,13.4 µM
same,CC50,KM12,70.3 µM
same,GI50,HCT-116,2.29 µM
same,CC50,HCT-116,16.8 µM
same,GI50,MDA-MB-231/ATCC,12.3 µM
same,CC50,MDA-MB-231/ATCC; read-out: LC50,51.8 µM
same,GI50,PC-3,11.2 µM
same,CC50,PC-3,58.5 µM
same,GI50,EKVX,14.4 µM
same,CC50,EKVX,53.8 µM
same,GI50,UO-31,11 µM
same,CC50,UO-31,47.9 µM
same,GI50,U251,4.74 µM
same,CC50,U251,41.5 µM
same,GI50,HS 578T,14.6 µM
same,CC50,HS 578T,> 100 µM
same,GI50,HOP-92,12.7 µM
same,CC50,HOP-92,63.5 µM
same,GI50,SF-268,15 µM
same,CC50,SF-268,94 µM
same,GI50,SN12C,12 µM
same,CC50,SN12C; read-out: LC50,50 µM
same,GI50,SF-539,13.2 µM
same,CC50,SF-539,51.1 µM
same,GI50,HT29,2.84 µM
same,CC50,HT29,32.3 µM
same,GI50,LOX IMVI,1.63 µM
same,CC50,LOX IMVI,6.19 µM
same,GI50,COLO 205,14.6 µM
same,CC50,COLO 205,62.4 µM
same,GI50,MOLT-4,4.69 µM
same,CC50,MOLT-4,> 100 µM
same,GI50,NCI-H522,13.3 µM
same,CC50,NCI-H522,53.2 µM
same,GI50,786-0,14.5 µM
same,CC50,786-0,57 µM
same,GI50,CCRF-CEM,6.58 µM
same,CC50,CCRF-CEM,> 100 µM
same,GI50,MDA-MB-468,8.08 µM
same,CC50,MDA-MB-468,54.7 µM
same,GI50,T-47D,11.9 µM
same,CC50,T-47D,94.2 µM
same,GI50,NCI-H460,15.7 µM
same,CC50,NCI-H460,69.4 µM
same,GI50,HCC-2998,16 µM
same,CC50,HCC-2998,56 µM
same,GI50,SK-MEL-28,14.9 µM
same,CC50,SK-MEL-28,53.4 µM
same,GI50,K-562,3.7 µM
same,CC50,K-562,> 100 µM
CN(C)c1nc(NCCNS(=O)(=O)c2ccc(C3=Nc4c(N)nc(N)nc4NC(c4ccc(C(F)(F)F)cc4)C3)cc2)nc(Nc2ccc(F)cc2)n1 (centres unmarked) [31g],GI50,A498,22.2 µM
same,CC50,A498,77.4 µM
same,GI50,OVCAR-3,11.9 µM
same,CC50,OVCAR-3,86 µM
same,GI50,HL-60(TB),4.07 µM
same,CC50,HL-60(TB),86 µM
same,GI50,CAKI-1,36.8 µM
same,CC50,CAKI-1,86 µM
same,GI50,SNB-75,2.13 µM
same,CC50,SNB-75,86 µM
same,GI50,SK-MEL-2,10.8 µM
same,CC50,SK-MEL-2,24.7 µM
same,GI50,UACC-257,23.3 µM
same,CC50,UACC-257,86 µM
same,GI50,SK-MEL-5,10.4 µM
same,CC50,SK-MEL-5,21.3 µM
same,GI50,A549/ATCC,55 µM
same,CC50,A549/ATCC,86 µM
same,GI50,M14,7.87 µM
same,CC50,M14,86 µM
same,GI50,KM12,6.14 µM
same,CC50,KM12,86 µM
same,GI50,HCT-116,5.1 µM
same,CC50,HCT-116,86 µM
same,GI50,PC-3,4.37 µM
same,CC50,PC-3,86 µM
same,GI50,EKVX,5.52 µM
same,CC50,EKVX,86 µM
same,GI50,UO-31,> 86 µM
same,CC50,UO-31,> 86 µM
same,GI50,U251,5.52 µM
same,CC50,U251,86 µM
same,GI50,HS 578T,9.03 µM
same,CC50,HS 578T,86 µM
same,GI50,HOP-92,2.99 µM
same,CC50,HOP-92,16.9 µM
same,GI50,SF-268,11.2 µM
same,CC50,SF-268,86 µM
same,GI50,SF-539,6.22 µM
same,CC50,SF-539,24.7 µM
same,GI50,HT29,4.88 µM
same,CC50,HT29,18.3 µM
same,GI50,LOX IMVI,3.14 µM
same,CC50,LOX IMVI,12 µM
same,GI50,COLO 205,9.73 µM
same,CC50,COLO 205,21.8 µM
same,GI50,MOLT-4,2.74 µM
same,CC50,MOLT-4,86 µM
same,GI50,NCI-H522,17.8 µM
same,CC50,NCI-H522,44.8 µM
same,GI50,786-0,10.1 µM
same,CC50,786-0,39.8 µM
same,GI50,CCRF-CEM,3.24 µM
same,CC50,CCRF-CEM,86 µM
same,GI50,MDA-MB-468,2.67 µM
same,CC50,MDA-MB-468,11.7 µM
same,GI50,T-47D,12 µM
same,CC50,T-47D,86 µM
same,GI50,NCI-H460,5.49 µM
same,CC50,NCI-H460,86 µM
same,GI50,HCC-2998,4.73 µM
same,CC50,HCC-2998,25.9 µM
same,GI50,SK-MEL-28,15 µM
same,CC50,SK-MEL-28,86 µM
same,GI50,K-562,3.51 µM
same,CC50,K-562,86 µM
